The text below walks through data of patent publication US20240190880A1 (THE REGENTS OF THE UNIVERSITY OF MICHIGAN, priority 2021, published 2024).

One assay deals with T1, ER (Homo sapiens, UniProt P03372).
T1 construct: host or cells: T47D and MCF7 human breast cancer cells
T1 sequence (P03372 1-595): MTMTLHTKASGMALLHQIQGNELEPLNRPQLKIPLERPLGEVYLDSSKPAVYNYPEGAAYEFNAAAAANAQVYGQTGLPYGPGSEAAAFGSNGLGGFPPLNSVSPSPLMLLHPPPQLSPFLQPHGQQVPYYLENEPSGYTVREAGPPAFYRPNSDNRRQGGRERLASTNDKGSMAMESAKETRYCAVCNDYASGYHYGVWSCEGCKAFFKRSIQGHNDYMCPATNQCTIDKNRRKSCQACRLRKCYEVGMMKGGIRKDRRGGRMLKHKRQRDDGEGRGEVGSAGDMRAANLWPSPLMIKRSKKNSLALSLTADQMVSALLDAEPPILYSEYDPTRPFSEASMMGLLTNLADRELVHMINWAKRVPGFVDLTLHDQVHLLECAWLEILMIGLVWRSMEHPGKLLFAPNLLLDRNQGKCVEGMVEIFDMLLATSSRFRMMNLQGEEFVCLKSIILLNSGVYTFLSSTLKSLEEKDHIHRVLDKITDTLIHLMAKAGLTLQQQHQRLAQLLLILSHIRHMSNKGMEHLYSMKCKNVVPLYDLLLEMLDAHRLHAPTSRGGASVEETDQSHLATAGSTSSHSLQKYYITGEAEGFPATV
The assay can be described thus: ER degradation activity, in-cell western blot analysis in T47D cells. Format: cell-based. Conditions: 16 hours, Table A does not say which cell line (T47D or MCF7), read-out: Potency (DC50). In a few lines: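 T47D cells cultured in DMEM with 10% FBS, treated with compounds (final 0.5% DMSO) for 16 h. ER level measured by in-cell western with anti-rabbit-680/anti-mouse-800 near-infrared detection. Relative ER percentage calculated against untreated and DMSO-treated wells set as 100%.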
Broadly, the DC50 is the concentration giving 50% degradation. On to `C[C@@H]1Cc2cc(O)ccc2[C@@H](c2c(F)cc(N3CC4(CCN(C(=O)CN5Cc6cc7c(cc6C5)C(=O)N(C5CCC(=O)NC5=O)C7=O)CC4)C3)cc2F)N1CC(F)F` (stereo partly drawn) [E 45, 6-(2-(2-(4-((1S,3R)-2-(2,2-difluoroethyl)-6-hydroxy-3-methyl-1,2,3,4-tetrahydroisoquinolin-1-yl)-3,5-difluorophenyl)-2,7-diazaspiro[3.5]nonan-7-yl)-2-oxoethyl)-2-(2,6-dioxopiperidin-3-yl)-6,7-dihydropyrrolo[3,4-f]isoindole-1,3(2H,5H)-dione], for which the 50% degradation concentration (DC50) was below 10 nM.
Turning to `CN(C1CCN(c2ccc([C@@H]3c4ccc(O)cc4CC[C@@H]3c3ccccc3)cc2)CC1)N1CCC(C(=O)N2Cc3cc4c(cc3C2)C(=O)N(C2CCC(=O)NC2=O)C4=O)CC1` (mixture of isomers) [E 287, 2-(2,6-dioxopiperidin-3-yl)-6-(1-((1-(4-((1R,2S)-6-hydroxy-2-phenyl-1,2,3,4-tetrahydronaphthalen-1-yl)phenyl)piperidin-4-yl)(methyl)amino)piperidine-4-carbonyl)-6,7-dihydropyrrolo[3,4-f]isoindole-1,3(2H,5H)-dione], the DC50 fell in the range of 10 to 100 nM.
The same measure, in the same setting: under `O=C1CCC(N2C(=O)c3cc4c(cc3C2=O)CN(CC(=O)N2CC(n3cc(-c5ccc([C@@H]6c7ccc(O)cc7CC[C@@H]6c6ccccc6)cc5)cn3)C2)C4)C(=O)N1` (stereo partly drawn) [E 215, 2-(2,6-dioxopiperidin-3-yl)-6-(2-(3-(4-(4-((1R,2S)-6-hydroxy-2-phenyl-1,2,3,4-tetrahydronaphthalen-1-yl)phenyl)-1H-pyrazol-1-yl)azetidin-1-yl)-2-oxoethyl)-6,7-dihydropyrrolo[3,4-f]isoindole-1,3(2H,5H)-dione] stands above 100 nM.
Same read-out and setting: in the case of `C[C@@H]1Cc2c([nH]c3ccccc23)[C@@H](c2c(F)cc(-c3ccc(C(=O)N4CCC(N5Cc6cc7c(cc6C5)C(=O)N(C5CCC(=O)NC5=O)C7=O)CC4)nc3)cc2F)N1CC(F)F` (stereo partly drawn) [E 325, 6-(1-(5-(4-((1R,3R)-2-(2,2-difluoroethyl)-3-methyl-2,3,4,9-tetrahydro-1H-pyrido[3,4-b]indol-1-yl)-3,5-difluorophenyl)picolinoyl)piperidin-4-yl)-2-(2,6-dioxopiperidin-3-yl)-6,7-dihydropyrrolo[3,4-f]isoindole-1,3(2H,5H)-dione] it was 10 to 100 nM.
Still for that read-out and setting: in the case of `O=C1CCC(N2Cc3cc4c(cc3C2=O)CN(C(=O)C2CCC(NC3CN(c5ccc([C@@H]6c7ccc(O)cc7CC[C@@H]6c6ccccc6)cc5)C3)CC2)C4)C(=O)N1` (stereo partly drawn) [E 359, 3-(6-(4-((1-(4-((1R,2S)-6-hydroxy-2-phenyl-1,2,3,4-tetrahydronaphthalen-1-yl)phenyl)azetidin-3-yl)amino)cyclohexane-1-carbonyl)-1-oxo-3,5,6,7-tetrahydropyrrolo[3,4-f]isoindol-2(1H)-yl)piperidine-2,6-dione] it was 10 to 100 nM.
`C[C@@H]1Cc2c([nH]c3ccccc23)[C@@H](c2ccc(N3CCC(C(=O)N4CCC(N5Cc6cc7c(cc6C5)C(=O)N(C5CCC(=O)NC5=O)C7=O)CC4)CC3)cc2)N1CC(F)F` (stereo partly drawn) [E 263, 6-(1-(1-(4-((1R,3R)-2-(2,2-difluoroethyl)-3-methyl-2,3,4,9-tetrahydro-1H-pyrido[3,4-b]indol-1-yl)phenyl)piperidine-4-carbonyl)piperidin-4-yl)-2-(2,6-dioxopiperidin-3-yl)-6,7-dihydropyrrolo[3,4-f]isoindole-1,3(2H,5H)-dione]: the 50% degradation concentration (DC50) lay within 10 to 100 nM.
Take `CN(C1CCC(N2Cc3cc4c(cc3C2)C(=O)N(C2CCC(=O)NC2=O)C4=O)CC1)C1CCN(c2ccc([C@@H]3c4ccc(O)cc4CC[C@@H]3c3ccccc3)cc2)CC1` (stereo partly drawn) [E 324, 2-(2,6-dioxopiperidin-3-yl)-6-(4-((1-(4-((1R,2S)-6-hydroxy-2-phenyl-1,2,3,4-tetrahydronaphthalen-1-yl)phenyl)piperidin-4-yl)(methyl)amino)cyclohexyl)-6,7-dihydropyrrolo[3,4-f]isoindole-1,3(2H,5H)-dione]: the DC50 is above 100 nM.
Same read-out and setting: under `C[C@@H]1Cc2cc(O)ccc2[C@@H](c2c(F)cc(N3CCC4(CCN(CC(=O)N5Cc6cc7c(cc6C5)C(=O)N(C5CCC(=O)NC5=O)C7=O)C4)CC3)cc2F)N1CC(C)(F)F` (stereo partly drawn) [E 33, 6-(2-(8-(4-((1S,3R)-2-(2,2-difluoropropyl)-6-hydroxy-3-methyl-1,2,3,4-tetrahydroisoquinolin-1-yl)-3,5-difluorophenyl)-2,8-diazaspiro[4.5]decan-2-yl)acetyl)-2-(2,6-dioxopiperidin-3-yl)-6,7-dihydropyrrolo[3,4-f]isoindole-1,3(2H,5H)-dione] stands above 100 nM.
The same measure, in the same setting: in the case of `O=C1CCC(N2Cc3cc4c(cc3C2=O)CN(C2CCN(CC3CCN(c5ccc([C@@H]6c7ccc(O)cc7CC[C@@H]6c6ccccc6)cc5)CC3)CC2)C4)C(=O)N1` (mixture of isomers) [E 3, Rac-3-(6-(1-((1-(4-((1R,2S)-6-hydroxy-2-phenyl-1,2,3,4-tetrahydronaphthalen-1-yl)phenyl)piperidin-4-yl)methyl)piperidin-4-yl)-1-oxo-3,5,6,7-tetrahydropyrrolo[3,4-f]isoindol-2(1H)-yl)piperidine-2,6-dione] it was below 10 nM.
The same measure, in the same setting: under `C[C@@H]1Cc2c([nH]c3ccccc23)[C@H](c2c(F)cc(CN3CCC4(CCC(C(=O)N5Cc6cc7c(cc6C5)C(=O)N(C5CCC(=O)NC5=O)C7=O)CC4)CC3)cc2F)N1CC(F)F` (stereo partly drawn) [E 383, 6-(3-(4-((1S,3R)-2-(2,2-difluoroethyl)-3-methyl-2,3,4,9-tetrahydro-1H-pyrido[3,4-b]indol-1-yl)-3,5-difluorobenzyl)-3-azaspiro[5.5]undecane-9-carbonyl)-2-(2,6-dioxopiperidin-3-yl)-6,7-dihydropyrrolo[3,4-f]isoindole-1,3(2H,5H)-dione] stands above 100 nM; under `CCC(=C(c1ccc(O)cc1)c1ccc(N2CCC3(CCN(CC(=O)N4Cc5cc6c(cc5C4)C(=O)N(C4CCC(=O)NC4=O)C6=O)CC3)C2)cc1)c1ccccc1` (stereo not shown) [E 192, 2-(2,6-dioxopiperidin-3-yl)-6-(2-(2-(4-(1-(4-hydroxyphenyl)-2-phenylbut-1-en-1-yl)phenyl)-2,8-diazaspiro[4.5]decan-8-yl)acetyl)-6,7-dihydropyrrolo[3,4-f]isoindole-1,3(2H,5H)-dione], 10 to 100 nM; under `O=C1CCC(N2C(=O)c3cc4c(cc3C2=O)CN(C(=O)CN2CC3(C2)CN(c2ccc(C5=C(c6ccc(F)cc6)CCCc6cc(O)ccc65)cc2)C3)C4)C(=O)N1` (stereo not shown) [E 49, 2-(2,6-dioxopiperidin-3-yl)-6-(2-(6-(4-(8-(4-fluorophenyl)-3-hydroxy-6,7-dihydro-5H-benzo[7]annulen-9-yl)phenyl)-2,6-diazaspiro[3.3]heptan-2-yl)acetyl)-6,7-dihydropyrrolo[3,4-f]isoindole-1,3(2H,5H)-dione], 10 to 100 nM.

The assay is the same for the next values; noted with them: compounds 16 hours, Table A does not say whether T47D or MCF7, read-out: Potency (DC50).
Turning to `C[C@@H]1Cc2c(ccc3[nH]ncc23)[C@@H](c2c(F)cc(C3=CCC(C(=O)N4CCC(N5Cc6cc7c(cc6C5)C(=O)N(C5CCC(=O)NC5=O)C7=O)CC4)CC3)cc2F)N1CC(F)F` (mixture of isomers) [E 468, 6-(1-(4′-((6S,8R)-7-(2,2-difluoroethyl)-8-methyl-6,7,8,9-tetrahydro-3H-pyrazolo[4,3-f]isoquinolin-6-yl)-3′,5′-difluoro-2,3,4,5-tetrahydro-[1,1′-biphenyl]-4-carbonyl)piperidin-4-yl)-2-(2,6-dioxopiperidin-3-yl)-6,7-dihydropyrrolo[3,4-f]isoindole-1,3(2H,5H)-dione], the DC50 was 10 to 100 nM.
